Source: paper PMC12495412, “Coumarin/nitrogen-bearing heterocyclic hybrid-loaded electrospun PMMA/PVP nanofibrous scaffolds for accelerating topical wound healing rates: synthesis and in vitro bio-evaluation” (RSC Advances, 2025)
Converted amounts (≈) assume the structure as drawn. “And” between values parts separate entries of the source, which are not always exact repeats. Equal entries are not always repeated.

Assays:
A549 cells [1] = experiment: MTT anticancer assay; assay type: cell-based, human; settings: Homo sapiens, A549, lung carcinoma cells, 48 h
Source text: (§1) MTT assay: the normal cell line (Wi-38), colon cancer (Caco-2), lung cancer (A549), and breast cancer (MDA) cell lines were sourced from ATCC, USA. All different cell lines were cultivated and preserved in DMEM medium (SERANA, Germany), accompanied by 10% FBS (Gibco, USA) and 1% Pen/Strep solution (Lonza, USA). The newly prepared derivatives at various doses were considered for their anticancer activity and their safety on normal cells, applying MTT (3-[4, 5-dimethylthiazol]-2, 5-diphenyltetrazolium bromide) methods.[22] At first, all normal and cancer cell lines (1.0 ×10^4) were inoculated in 4 antiseptic 96-well tissue culture microplates and incubated for 24 h in a CO2 incubator. After cell attachments, the prepared derivatives were added to both normal Wi-38 cells at diverse concentrations of (6.25–200 μg mL^−1, 2-fold) and cancer cells at different concentrations of (3.125–100 μg mL^−1, 2-fold) in triplicate and incubated for another 48 h at 37 °C in a CO2 incubator with an adjusted concentration of 5%. After that, the treated cells were cleaned three times with PBS to remove debris and dead cells. Next, 200 μL of 0.5 mg mL^−1 MTT dye solution in PBS was mixed in each well, and the cells were further kept for 3 h at 37 °C in a 5% CO2 incubator. After that, MTT was removed and 200 μL of DMSO was added to each well. The optical density (OD) was recorded at 570 nm via a microplate reader (B.M.G. LabTech, Germany). Basic cells (untreated) were utilized as negative control cells, and 5-fluorouracil (5-FU) was included as a standard chemotherapy drug. The qualified cell viability (%) was evaluated as in equation (eqn (1)):1 Relative cell viability (%) = […] A1 is the OD of the examined derivative, A0 is the OD of the standard, and AU is the OD of the untreated cells.
(§2) Anticancer activity assay: the anticancer effect of each derivative was assessed by evaluating the half-maximal inhibitory concentration (IC50) value via the GraphPad Prism 7.0 software. However, SI (selective index) values of each derivative were estimated by splitting the IC50 value of healthy cells by the IC50 value of malignant cells, as previously reported.[23] The effects of the created derivatives on the morphology of MDA cells were evaluated at IC50 doses and captured by phase-contrast microscopy (Olympus, Germany) in comparison to untreated control cells.

MDA cells = experiment: MTT anticancer assay; assay type: cell-based, human; settings: Homo sapiens, Breast carcinoma cell, 48 h
Source text: as §1, §2

Caco-2 cells = experiment: MTT anticancer assay; assay type: cell-based
Source text: as §1, §2

S. aureus = experiment: Agar-well diffusion of synthesized compounds; assay type: cell-based, Staphylococcus aureus ATCC 25923; settings: Staphylococcus aureus, 100 μL of 10 mg mL^−1 per well, 24 h, 37 °C
Source text: (§3) The antimicrobial activity of the prepared compounds was estimated through an agar-well diffusion method as adapted from the modified Kirby–Bauer protocol.[24] In this test, microbial pathogens were applied, including Staphylococcus aureus ATCC 25923 (S. aureus), Streptococcus mutans ATCC 25175 (S. mutans), Bacillus cereus ATCC 19637 (B. cereus), Bacillus aureus ATCC 25923 (B. aureus), Bacillus epidermidis ATCC 14990 (B. epidermidis), and Bacillus subtilis ATCC 11774 (B. subtilis) as Gram-positive bacteria, and Pseudomonas aeruginosa ATCC 27853 (P. aeruginosa), Klebsiella pneumonia ATCC 13883 (K. pneumonia), and Salmonella typhimurium ATCC 14028 (S. typhimurium), Salmonella pneumoniae ATCC 10031(S. pneumoniae), Escherichia coli ATCC 10536 (E. coli), and Salmonella paratyphi ATCC 9150 (S. paratyphi) as Gram-negative bacteria. Additionally, Candida albicans (ATCC 10231), Candida krusei ATCC 6258 (C. krusei), Candida glabrata ATCC 66032 (C. glabrata), andCandida parapsilosis ATCC 22019 (C. parapsilosis) were applied as models of unicellular fungi. The pre-inoculation cultures of the pathogens were prepared on Muller–Hinton broth and cultivated for 24 h at 37 °C. The agar-well test was prepared on Muller–Hinton agar with 100 μL of each pathogen pre-culture (0.5 McFarland conc.) and uniformly distributed on the plate surface. […]

Wi-38 cells = experiment: MTT cytotoxicity assay, normal cells; assay type: cell-based; settings: WI-38, normal human lung fibroblast cells, 48 h
Source text: as §1, §2

A549 cells [2] = experiment: Wound healing scratch (anti-migration) assay; assay type: cell-based, human; settings: IC50 doses, 48 h
Procedure: To assess the anti-migration inhibition capability of newly synthesized derivatives, a wound healing technique was employed. A549 cells were planted in 12-well plates and kept alive at 37 °C until they achieved 80–90% fluency. The cell monolayers were smashed with a sterile tip and exposed to the prepared derivatives at IC50 doses. At 0 and 48 h of treatment, the wound closure area was captured and calculated by imaging analysis with the Cell-Sens software (Olympus, Japan).

all applied pathogens = experiment: Agar-well diffusion of synthesized compounds, whole panel; assay type: cell-based
Source text: (§4) The antimicrobial activity of the prepared compounds was estimated through an agar-well diffusion method as adapted from the modified Kirby–Bauer protocol.[24] In this test, microbial pathogens were applied, including Staphylococcus aureus ATCC 25923 (S. aureus), Streptococcus mutans ATCC 25175 (S. mutans), Bacillus cereus ATCC 19637 (B. cereus), Bacillus aureus ATCC 25923 (B. aureus), Bacillus epidermidis ATCC 14990 (B. epidermidis), and Bacillus subtilis ATCC 11774 (B. subtilis) as Gram-positive bacteria, and Pseudomonas aeruginosa ATCC 27853 (P. aeruginosa), Klebsiella pneumonia ATCC 13883 (K. pneumonia), and Salmonella typhimurium ATCC 14028 (S. typhimurium), Salmonella pneumoniae ATCC 10031(S. pneumoniae), Escherichia coli ATCC 10536 (E. coli), and Salmonella paratyphi ATCC 9150 (S. paratyphi) as Gram-negative bacteria. Additionally, Candida albicans (ATCC 10231), Candida krusei ATCC 6258 (C. krusei), Candida glabrata ATCC 66032 (C. glabrata), andCandida parapsilosis ATCC 22019 (C. parapsilosis) were applied as models of unicellular fungi. The pre-inoculation cultures of the pathogens were prepared on Muller–Hinton broth and cultivated for 24 h at 37 °C. The agar-well test was prepared on Muller–Hinton agar with 100 μL of each pathogen pre-culture (0.5 McFarland conc.) and uniformly distributed on the plate surface. Under aseptic conditions, six wells were created on the agar surface using a sterile corkborer (9 mm). To each well, 100 μL of the prepared compound (10 mg mL^−1) was separately inserted into each plate. All plates were incubated for 24 h at 37 °C; the established inhibition zones (Halo-zones) surrounding the wells indicated positive antimicrobial activity and were stated as the radius of the inhibition zone (mm).

S. typhimurium = experiment: Agar-well diffusion of synthesized compounds; assay type: cell-based, Salmonella typhimurium ATCC 14028; settings: Salmonella enterica, 100 μL of 10 mg mL^−1 per well, 24 h, 37 °C
Source text: as §3

S. mutans = experiment: Agar-well diffusion of synthesized compounds; assay type: cell-based, Streptococcus mutans ATCC 25175; settings: Streptococcus mutans, 100 μL of 10 mg mL^−1 per well, 24 h, 37 °C
Source text: as §4

**Q.** For `Cc1ccc(-c2nnc(Nc3ccc(NC(=O)c4cc5ccccc5oc4=O)cc3)c3ccccc23)cc1` [Compound C, 2-oxo-N-(4-((4-(p-tolyl)phthalazin-1-yl)amino)phenyl)-2H-chromene-3-carboxamide], which IC50 (A549 cells [1]) is on record?
**A.** 12.2 ± 1.36 µg/mL (≈ 24.4 µM)

**Q.** And the IC50 (MDA cells)?
**A.** 6.06 ± 0.81 µg/mL (≈ 12.2 µM)

**Q.** And the IC50 (Caco-2 cells; Homo sapiens, Caco-2, colon carcinoma cells, MTT, 48 h)?
**A.** 7.11 ± 1.68 µg/mL (≈ 14.3 µM)

**Q.** What about the “SI Caco-2” value (Caco-2 cells; IC50 Wi-38 / IC50 Caco-2) of the same compound?
**A.** 19.25 ± 1.36

**Q.** And the zone of inhibition at 10 mg/mL (S. aureus)?
**A.** ~19.5 mm

**Q.** And the IC50 (Wi-38 cells)?
**A.** 137 ± 11.7 µg/mL (≈ 275 µM)

**Q.** What about the Migration inhibition (A549 cells [2]) of the same compound?
**A.** 74.45% and 79.09%

**Q.** What about the “Antimicrobial activity” value (all applied pathogens) of the same compound?
**A.** wide-spectrum antibacterial activity

**Q.** And the zone of inhibition at 10 mg/mL (S. typhimurium)?
**A.** ~15.5 mm

**Q.** What about the zone of inhibition at 10 mg/mL (S. mutans) of the same compound?
**A.** ~17.2 mm
